Laboratory results reported in patent US4983328A, “N-(4-(3-aminopropyl)aminobutyl)-2-(ω-gua nidino-fatty-acid-amido(-2-substituted-ethanamide, salt thereof, and process for preparation thereof” (Bristol-Myers Company, priority 1981, dated 1991).
Converted amounts (≈) assume the structure as drawn. Where two headings read alike, the source gives them in different places.

Legend:
[1] = chemical stability: retention (%) after heating at 60° C. for 4 hours, by HPLC; type: physicochemical
Method: The chemical stability of the present compound was evaluated by determining the retention (%) after heating at 60° C. for 4 hours. In Table 5 are shown the test results together with those for spergualin as reference. The retention was determined by means of high performance liquid chromatography (HPLC). The column was packed with Nucleosil® 5C18. The solvent used for spergualin was a mixture (6:94) of acetonitrile -0.01M sodium pentanesulfonate +0.01M Na2 HPO4 (pH 3), while that for the compounds of this invention was a mixture of acetonitrile -0.005M sodium pentanesulfonate ±0.01M Na2 HPO4 (pH 3). The mixture ratio in the latter case was varied for each particular compound. For instance, a mixing ratio of 10:90 was used for Compound No. 9, while that of 7:93 for Compound No. 22.

[2] = cumulative toxicity in mice (maximum tolerated dose, once a day for 6 consecutive days); conditions: mouse, in vivo, ip, i.p. once a day for 6 consecutive days, total dose, read-out: Maximum Tolerated Dose (total dose not causing death)
Summary of the method: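 Mice dosed intraperitoneally once a day for 6 consecutive days with a fixed amount per unit body weight. The value is the maximum total dose not causing death.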

[3] = test system: mouse leukemia L-1210 cells; assay: growth inhibitory activity to cancer cells in vitro (L-1210, 48 hours); type: cell-based; conditions: for inhibition at 5 µg/mL: L1210, 5 mcg/ml; for inhibition at 10 µg/mL: L1210, 10 mcg/ml; for inhibition at 20 µg/mL: L1210, 20 mcg/ml; for inhibition at 40 µg/mL: L1210, 40 mcg/ml; for IC50: L1210, L-1210 cells, read-out: 50% inhibitory concentration
Summary of the method: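 L-1210 cells from DBA/2 mouse ascites, cultured at 5×10^4 cells per well in RPMI 1640 with 10% FCS and 5 μM 2-mercaptoethanol, 37° C, CO2, for 48 h with compound. Cell counts by Coulter Counter gave % inhibition (1−T/C)×100, and IC50 was derived across concentrations.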

[4] = acute toxicity in mice (single intraperitoneal administration); conditions: mouse, in vivo, ip, read-out: LD50 (median lethal dose on single administration)
Method: In Table 8 median lethal doses (LD50) of typical compounds of this invention are shown, measured in mice upon single intraperitoneal administration, as well as maximum tolerated doses in terms of total dose when a fixed amount per unit body weight was administered intraperitoneally to mice once a day for 6 consecutive days.
*Median lethal dose on single administration.

mouse leukemia L-1210 = assay: therapeutic effect on implanted cancer in mice (L-1210, survival over 30 days); type: in vivo, mouse (BDF1); conditions: L1210, ip, 720 h, 6 days; for responders at 6.25 mg/kg / response vs control in vivo at 6.25 mg/kg: 6.25 mg/kg/day i.p.; for responders at 12.5 mg/kg / response vs control in vivo at 12.5 mg/kg: 12.5 mg/kg/day i.p.; for responders at 25 mg/kg / response vs control in vivo at 25 mg/kg: 25 mg/kg/day i.p.; for responders at 50 mg/kg / response vs control in vivo at 50 mg/kg: 50 mg/kg/day i.p.
Summary of the method: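 Male BDF1 mice aged 5 weeks received an intraperitoneal inoculation of 10^5 L-1210 mouse leukemia cells. Starting on the inoculation day, test compounds dissolved in physiological saline were injected intraperitoneally once daily for 6 consecutive days, and animals were then followed for 30 days to record survival.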

[5] = read-out: Growth inhibition (%), (1-T/C) × 100
[6] = read-out: Number of mice survived for 30 days (converted)
[7] = read-out: Prolongation of survival period (%), T/C × 100

Row | Compound | remaining at 4 h ([1]; pH 2, pH 2) [%] | remaining at 4 h ([1]; pH 4, pH 4) [%] | remaining at 4 h ([1]; pH 5, pH 5) [%] | remaining at 4 h ([1]; pH 6, pH 6) [%] | remaining at 4 h ([1]; pH 7, pH 7) [%] | remaining at 4 h ([1]; pH 8, pH 8) [%] | remaining at 4 h ([1]; pH 9, pH 9) [%] | remaining at 4 h ([1]; pH 10, pH 10) [%] | MTD [2] [mg/kg] | inhibition at 5 µg/mL [3, 5] [%] | inhibition at 10 µg/mL [3, 5] [%] | inhibition at 20 µg/mL [3, 5] [%] | inhibition at 40 µg/mL [3, 5] [%] | IC50 [3] [µg/mL] | responders at 6.25 mg/kg (mouse leukemia L-1210; [6]) [%] | response vs control in vivo at 6.25 mg/kg (mouse leukemia L-1210; [7]) [%] | responders at 12.5 mg/kg (mouse leukemia L-1210; [6]) [%] | response vs control in vivo at 12.5 mg/kg (mouse leukemia L-1210; [7]) [%] | responders at 25 mg/kg (mouse leukemia L-1210; [6]) [%] | response vs control in vivo at 25 mg/kg (mouse leukemia L-1210; [7]) [%] | other results
1 | N=C(N)NCCCC[C@H](O)CC(=O)NC(OCCO)C(=O)NCCCCNCCCN (stereo partly drawn) [Compound 25, N-[4-(3-aminopropyl)aminobutyl]-2-(7-guanidino-3-hydroxyheptanamido)-2-(2-hydroxy)ethoxyethanamide] | 68.9 | 100 | 100 | 100 | 100 | 100 | 97.7 | 95.5 | > 300 | 20 | 42 | 63.5 | 74.7 | 7.2 (≈ 16.1 µM) | 0 | 107 | 0 | 193 | 0 | 229 | inhibition at 2.5 µg/mL ([3]; L1210, 2.5 mcg/ml, read-out: Growth inhibition (%), (1-T/C) × 100): 9%; LD50 [4]: > 50 mg/kg; responders at 50 mg/kg (mouse leukemia L-1210; [6]): 100%; response vs control in vivo at 50 mg/kg (mouse leukemia L-1210; [7]): > 429%
2 | COC(NC(=O)CCCCCCNC(=N)N)C(=O)NCCCCNCCCN (racemic) [Compound 9, N-[4-(3-aminopropyl)aminobutyl]-2-(7-guanidinoheptanamido)-2-methoxyethanamide] | 69.3 | 100 | 100 | 100 | 100 | 100 | 97.5 | 97.9 | > 75 | 35.5 | 45.9 | 62.3 | 78.1 | 12 (≈ 29.9 µM) | 100 | > 429 | 100 | > 429 | 0 | 0 | remaining at 4 h ([1]; pH 3, pH 3): 89.3%; inhibition at 80 µg/mL ([3]; L1210, 80 mcg/ml, read-out: Growth inhibition (%), (1-T/C) × 100): 90.9%; inhibition at 160 µg/mL ([3]; L1210, 160 mcg/ml, read-out: Growth inhibition (%), (1-T/C) × 100): 96%; LD50 ([4]; mice, single i.p.): 12.5 to 25 mg/kg; responders at 0.2 mg/kg (mouse leukemia L-1210; 0.20 mg/kg/day i.p., read-out: Number of mice survived for 30 days (converted)): 0%; response vs control in vivo at 0.2 mg/kg (mouse leukemia L-1210; 0.20 mg/kg/day i.p., read-out: Prolongation of survival period (%), T/C × 100): 114%; responders at 0.39 mg/kg (mouse leukemia L-1210; 0.39 mg/kg/day i.p., read-out: Number of mice survived for 30 days (converted)): 0%; response vs control in vivo at 0.39 mg/kg (mouse leukemia L-1210; 0.39 mg/kg/day i.p., read-out: Prolongation of survival period (%), T/C × 100): 171%; responders at 0.78 mg/kg (mouse leukemia L-1210; 0.78 mg/kg/day i.p., read-out: Number of mice survived for 30 days (converted)): 50%; response vs control in vivo at 0.78 mg/kg (mouse leukemia L-1210; 0.78 mg/kg/day i.p., read-out: Prolongation of survival period (%), T/C × 100): > 300%; responders at 1.56 mg/kg (mouse leukemia L-1210; 1.56 mg/kg/day i.p., read-out: Number of mice survived for 30 days (converted)): 25%; response vs control in vivo at 1.56 mg/kg (mouse leukemia L-1210; 1.56 mg/kg/day i.p., read-out: Prolongation of survival period (%), T/C × 100): > 411%; responders at 3.13 mg/kg (mouse leukemia L-1210; 3.13 mg/kg/day i.p., read-out: Number of mice survived for 30 days (converted)): 100%; response vs control in vivo at 3.13 mg/kg (mouse leukemia L-1210; 3.13 mg/kg/day i.p., read-out: Prolongation of survival period (%), T/C × 100): > 429%; responders at 50 mg/kg (mouse leukemia L-1210; [6]): 0%; response vs control in vivo at 50 mg/kg (mouse leukemia L-1210; [7]): 0%
